Holding throughout (assay): NCI-60 cell line screen, 48 h
In assay [1] the test system is HCT-15 colon.
For assay [2], the system named is SK-MEL-5 melanoma.
In assay [3] the test system is HCT-116 colon.
Assay [4] has as its system 786-0 renal.
Assay [5] relates to NCI/ADR-RES ovarian.
Assay [6] concerns MDA-MB-231 breast.
In assay [7] the test system is DU-145 prostate.
The test system of assay [8] is SNB-75 CNS.
Assay [9] deals with K-562 leukemia.
In assay [10] the test system is UACC-62 melanoma.

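Following 48 hours of exposure in 96-well plates, responses at five concentrations were used to interpolate endpoints linearly. At the GI50, growth is halved. TGI is the concentration that stops growth completely.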

In the case of `O=c1c(Br)ccc(Br)cc1Br`, the GI50 was 752 nM in [1]; 3190 nM in assay [2]; 1510 nM in [3]; 2070 nM in assay [4]; 2560 nM in assay [5]; 1990 nM in assay [6]. Moreover, the GI50 was 1750 nM in assay [7], 1830 nM in assay [8], 527 nM in assay [9] and 1750 nM in assay [10]. The TGI turned out to be 2480 nM in [1]; 10900 nM in assay [2]; 2880 nM in [3]; 3700 nM in [4]; 7160 nM in [5]; 3680 nM in assay [6]. In addition, the TGI in [7] was 3140 nM; in assay [8] it was 4240 nM; in assay [9] it was 3640 nM; in [10] it was 3270 nM.
`Cn1cc(C2=C(c3cn(CCCN/C(N)=N\[N+](=O)[O-])c4ccccc34)C(=O)NC2=O)c2ccccc21`: the GI50 is 19800 nM in assay [1]; 2330 nM in assay [2]; 1820 nM in assay [3]; 5070 nM in assay [4]; greater than 25000 nM in [5]; 3800 nM in assay [6]. For the same compound, the GI50 in [7] was 6750 nM; in assay [8], 161 nM; in [9], 2950 nM; in assay [10] it was 3100 nM. For the same compound, the TGI in [1] was greater than 25000 nM; in assay [2] it was 7370 nM; in [3] it was greater than 25000 nM; in assay [4], greater than 25000 nM; in assay [5] it was greater than 25000 nM; in assay [6], 16500 nM. Besides, the TGI is 23600 nM in [7], 7920 nM in [8], greater than 22500 nM in assay [9] and 7590 nM in [10].
On to `c1ccc2c(c1)-c1nc3ccccc3cc1C2N1CCOCC1` (stereo not given), for which the TGI in [1], in assay [2], in assay [3], in assay [4], in assay [5] and in assay [6] was greater than 100000 nM in each case. In addition, the TGI in assay [7], in assay [8], in [9] and in [10] was greater than 100000 nM each time.
Regarding `CC(NC(=O)C1(N)CCCC1)C(=O)O` (stereo not given), the TGI in [1], in assay [2], in assay [3], in assay [4], in assay [5] and in assay [6] was greater than 100000 nM throughout. The TGI in assay [7], in assay [8], in [9] and in assay [10] was greater than 100000 nM each time.
Consider `COc1ccc(-c2nn(C(=O)c3cc(OC)c(OC)c(OC)c3)c3cc(N)ccc23)cc1`, for which the GI50 is less than 10 nM in assay [1]; less than 14.5 nM in [2]; less than 10 nM in assay [3]; less than 19.1 nM in [4]; less than 10 nM in assay [5]; 13.3 nM in assay [6]. The GI50 in assay [7] was less than 13 nM; in assay [8], less than 12.2 nM; in assay [9] it was less than 10 nM; in assay [10], less than 10 nM. The TGI in assay [1] turned out to be 7210 nM; in [2], 45.3 nM; in [3], 1450 nM; in [4], 3630 nM; in assay [5], 2280 nM; in [6], 12900 nM. In addition, the TGI in assay [7] stood at 345 nM; in assay [8], 7760 nM; in assay [9], 10500 nM; in assay [10], 15300 nM.
For the compound `O=c1c(-c2nc3ccccc3[nH]2)cc2ccccc2n1Cc1cn(Cc2ccc(F)cc2)nn1`, the GI50 in assay [1] is 399 nM; in [2], 164 nM; in assay [3], 44.2 nM; in [4], 415 nM; in [5], 1280 nM; in [6] it was 313 nM. The GI50 in [7] is 143 nM; in assay [8], less than 14.9 nM; in assay [9], 60.9 nM; in assay [10], 437 nM. Also, the TGI was greater than 50900 nM in assay [1]; greater than 85700 nM in assay [2]; 5560 nM in assay [3]; 11300 nM in assay [4]; 19200 nM in assay [5]; 8410 nM in assay [6]. For the same compound, the TGI was 1050 nM in assay [7], 113 nM in assay [8], greater than 100000 nM in assay [9] and 50700 nM in [10].
For the compound `CCCCCCCCCCCC(=O)[O][Sn]([CH2]CCC)([CH2]CCC)[CH2]CCC`, the GI50 in assay [1] is 45.6 nM; in assay [2] it was 30.2 nM; in assay [3], 37.9 nM; in assay [4] it was 53.9 nM; in [5] it was 70.3 nM; in assay [6] it was 31.7 nM. For the same compound, the GI50 was 54.4 nM in assay [7], 28.2 nM in assay [8], 36.4 nM in assay [9] and 51.5 nM in assay [10]. Moreover, the TGI in assay [1] was 168 nM; in assay [2], 78.6 nM; in assay [3], 140 nM; in assay [4] it was 132 nM; in [5] it was 236 nM; in [6], 113 nM. For the same compound, the TGI was found to be 170 nM in [7], 113 nM in [8], 286 nM in assay [9] and 110 nM in assay [10].

The values above are taken from PubChem BioAssay (NCI).
